Experimental data taken from patent publication US20240091209A1, “COMPOSITIONS AND METHODS FOR TREATMENT OF HIDRADENITIS SUPPURATIVA” (SUZHOU KINTOR PHARMACEUTICALS, INC., priority 2021, published 2024).
Entries after “also recorded” stand apart in the source; their conditions may differ.

Key:
[1] = tested on: hidradenitis suppurativa (HS); assay: Study of Proxalutamide for the treatment of HS (Hurley Stage after 7 days); type: in vivo, human
Description: (§1) Overview: Four subjects, 2 males and 2 females, were recruited to the Proxalutamide HS study. At baseline (day 0) all subjects were diagnosed by a dermatologist with HS Hurley Stage 3. All subjects presented HS in the axilla region. Two subjects (1 male and 1 female) were treated for 7 days with Proxalutamide monotherapy 200 mg daily and two subjects were treated for 7 days with Proxalutamide placebo monotherapy 200 mg daily
Efficacy Endpoint: Hurley Stage following 7 days of treatment.
Formula: Proxalutamie 200 mg q.d.
(§2) Results: Following 7 days of treatment with Proxalutamide 200 mg q.d., all four subjects returned to the clinic to be assessed by a dermatologist. On day 7 both subjects treated with Proxalutamie were diagnosed by a dermatologist with HS Hurley Stage 1. […] On day 7 both subjects treated with Proxalutamie placebo were diagnosed by a dermatologist with HS Hurley Stage 3.

[2] = Adverse events in the Proxalutamide HS study; type: in vivo, human; conditions: 200 mg q.d. for 7 days; 2 subjects
Description: as §1, §2

androgen receptor (AR) = target: T1, androgen receptor (AR) (Homo sapiens, UniProt P10275); conditions: clinical evidence, no details given; cited from earlier work
T1 sequence (P10275 1-920): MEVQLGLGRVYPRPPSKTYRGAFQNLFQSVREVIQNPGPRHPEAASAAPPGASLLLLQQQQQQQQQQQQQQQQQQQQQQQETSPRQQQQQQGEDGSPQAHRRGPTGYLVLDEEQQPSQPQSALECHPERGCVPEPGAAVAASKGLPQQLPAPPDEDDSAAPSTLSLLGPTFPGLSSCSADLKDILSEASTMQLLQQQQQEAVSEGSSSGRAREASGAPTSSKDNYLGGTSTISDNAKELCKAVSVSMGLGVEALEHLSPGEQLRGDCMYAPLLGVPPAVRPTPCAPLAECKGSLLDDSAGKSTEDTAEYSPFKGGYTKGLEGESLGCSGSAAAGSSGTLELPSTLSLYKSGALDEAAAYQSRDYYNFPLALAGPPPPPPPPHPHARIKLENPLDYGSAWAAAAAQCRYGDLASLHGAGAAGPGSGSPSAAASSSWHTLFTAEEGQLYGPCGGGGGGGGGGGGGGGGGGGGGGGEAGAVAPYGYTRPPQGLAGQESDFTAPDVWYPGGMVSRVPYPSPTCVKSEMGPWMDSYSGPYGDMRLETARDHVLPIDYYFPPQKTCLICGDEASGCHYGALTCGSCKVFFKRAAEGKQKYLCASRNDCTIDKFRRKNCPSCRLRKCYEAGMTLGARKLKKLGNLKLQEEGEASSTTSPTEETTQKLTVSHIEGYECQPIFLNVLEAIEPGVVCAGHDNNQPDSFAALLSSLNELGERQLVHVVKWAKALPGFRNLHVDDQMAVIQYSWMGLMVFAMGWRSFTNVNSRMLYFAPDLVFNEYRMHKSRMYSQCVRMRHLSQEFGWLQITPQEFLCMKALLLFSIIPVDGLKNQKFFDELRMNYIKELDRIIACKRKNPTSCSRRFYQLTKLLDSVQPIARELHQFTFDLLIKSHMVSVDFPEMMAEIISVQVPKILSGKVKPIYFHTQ

[3] = men and women; cited from earlier work
[4] = tested on: hidradenitis suppurativa (HS); conditions: 24 female patients; ethinyloestradiol 50 μg + cyproterone acetate 50 mg vs ethinyloestradiol 50 μg + norgestrel 500 μg; positive benefits in both groups; cited from earlier work

SMILES | HS Hurley Stage diagnosed by a dermatologist on day 7 ([1]; 200 mg q.d. monotherapy for 7 days, 2 subjects (1 male, 1 female), axilla, baseline Hurley Stage 3, placebo subjects stayed at Stage 3) | Severity of HS compared to the placebo ([1]; within 7 days, 200 mg q.d.) | Adverse events reported by the subjects [2] | Effect on AR expression and activity (androgen receptor (AR)) | Safety in Phase II studies [3] | Benefit in HS versus ethinyloestradiol plus norgestrel [4]
CC1(C)C(=O)N(c2ccc(C#N)c(C(F)(F)F)c2F)C(=S)N1c1ccc(CCCc2ncco2)nc1 [Proxalutamide, proxalutamide] | 1 | reduced the severity of HS | No adverse events; also recorded: without any adverse events | lowers AR expression and activity | safe in both men and women | –
CC(=O)O[C@]1(C(C)=O)CC[C@H]2[C@@H]3C=C(Cl)C4=CC(=O)[C@@H]5C[C@@H]5[C@]4(C)[C@H]3CC[C@@]21C [cyproterone acetate] | – | – | – | – | – | no statistically significant advantage
